Assay results reported in article PMC4038472, “Exploring the Potential of Flubendazole in Filariasis Control: Evaluation of the Systemic Exposure for Different Pharmaceutical Preparations” (PLoS Neglected Tropical Diseases, 2014).
Read-outs that look alike come from different tables or passages of the source.

Key:
[1] = format: in vivo; conditions: for Time at which peak plasma concentrations were observed: range according to the experimental group and animal species (rats and jirds), FLBZ 5 mg/kg
Experimental: (§1) Jirds and rats were randomly allocated into four experimental groups (44 animals each). Experimental animals received the following treatments: FLBZ-CDoral, dosed orally (administered volume 0.25 and 1 mL for jirds and rats, respectively) in a CD-based solution (Cavasol); FLBZ-CDsc, dosed subcutaneously (sc) (injection volume of 0.25 and 1 mL for jirds and rats, respectively) in a CD-based solution (Cavitron); FLBZ-TWEEN, dosed sc (injection volume of 0.1 and 0.4 mL for jirds and rats, respectively) in a Tween-based formulation; and FLBZ-CMC, dosed orally (same volume as for FLBZ-CDoral) in a CMC-based suspension. The oral dose was administered using an intragastric tube. All treatments were given as a single dose of 5 mg/kg. The dose was selected because it is the dose previously reported in efficacy studies performed in the murine model. At defined time-points following treatment (5, 15 and 30 min, 1, 2, 3, 4, 6, 9, 12 and 16 h), blood samples were collected (n = 4 per time point) in heparinized plastic tubes. Plasma was separated by centrifugation at 2000× g for 15 min, placed into plastic tubes and frozen at −20°C until analysis by HPLC to quantify FLBZ, R-FLBZ and H-FLBZ plasma concentrations. After sc administration of the formulations, potential injection site reactions were evaluated by direct visual observation at the sampling time.
Chromatography was performed on a Shimadzu HPLC platform (Shimadzu Corporation, Kyoto, Japan), with two LC-10AS solvent pumps, an automatic sample injector (SIL-10A) with a 50 µL loop, an ultraviolet-visible spectrophotometric detector (UV) (SPD-10A) reading at 292 nm, a column oven (Eppendorf TC-45, Eppendorf, Madison, WI, USA) set at 30°C, and a CBM-10A integrator. Data and chromatograms were collected and analyzed using the Class LC10 software (SPD-10A, Shimadzu Corporation, Kyoto, Japan). The C18 reversed-phase column (5 µm, 250 mm×4.6 mm) was Kromasil (Kromasil®, Sweden). […]
Plasma samples (100 or 200 µL for jirds and rats, respectively) were spiked with OBZ as internal standard. […] Complete validation of the analytical procedures for extraction and quantification of drug and metabolites in plasma was performed before starting the analysis of experimental samples. […] The limit of quantification (FLBZ and metabolites was 0.01 µg/mL), defined as the lowest measured concentration with a CV <20%, accuracy of ±20% and absolute recovery ≥70%.
The peak concentration (Cmax) and time to peak concentration (Tmax) were read from the plotted concentration–time curve for each analyte. The area under the concentration–time curve from 0 up to the limit of quantification (AUC0-LOQ) for FLBZ and metabolites was calculated by the trapezoidal rule, using the PKSolutionTM computer program (Summit Research Services, Ashland, OR, USA). […]

[2] = Plasma pharmacokinetics of FLBZ and metabolites after oral or sc FLBZ formulations in jirds; format: in vivo, jirds (Meriones unguiculatus)
Experimental: as §1, with “All treatments were given as a single dose of 5 mg/kg. The dose was selected because it is the dose previously reported in efficacy studies performed in the murine model. At defined time-points following treatment (5, 15 and 30 min, 1, 2, 3, 4, 6, 9, 12 and 16 h), blood samples were collected (n = 4 per time point) in heparinized plastic tubes.” left out
Chromatography was performed on a Shimadzu HPLC platform (Shimadzu Corporation, Kyoto, Japan), with two LC-10AS solvent pumps, an automatic sample injector (SIL-10A) with a 50 µL loop, an ultraviolet-visible spectrophotometric detector (UV) (SPD-10A) reading at 292 nm, a column oven (Eppendorf TC-45, Eppendorf, Madison, WI, USA) set at 30°C, and a CBM-10A integrator. […]

[3] = design: method as in earlier work; conditions: pigs after FLBZ treatment; cited from earlier work
[4] = mouse, in vivo; cited from earlier work

Compound | Amount of R-FLBZ metabolite present in the bloodstream ([1]; rat, in vivo) | R-FLBZ AUC0-LOQ as share of the total drug recovered from plasma ([1]; rat, in vivo, 5 mg/kg) | R-FLBZ AUC0-LOQ as share of the total drug recovered from plasma ([2]; the different groups, FLBZ 5 mg/kg) | Time at which peak plasma concentrations were observed [1] | H-FLBZ concentrations as share of the total amount of drug recovered in plasma ([2]; FLBZ-CD (oral or sc) or FLBZ-TWEEN, 5 mg/kg) | H-FLBZ as share of total drug measured in the bloodstream [3] | Increase of systemic exposure compared to the conventional FLBZ suspension [4] | Plasma AUC, fold higher than conventional suspension [4] | Plasma Cmax, fold higher than conventional suspension [4]
COC(=O)Nc1nc2ccc(C(O)c3ccc(F)cc3)cc2[nH]1 (stereo not shown) [R-FLBZ] | only trace amounts | about 10% | about 10% |  |  |  |  |  | 
Nc1nc2cc(C(=O)c3ccc(F)cc3)ccc2[nH]1 [H-FLBZ] |  |  |  | 3.0 to 5.2 h | 10–20% | 97% |  |  | 
COC(=O)Nc1nc2cc(C(=O)c3ccc(F)cc3)ccc2[nH]1 [FLBZ, flubendazole] |  |  |  | 0.7 to 3.2 h |  |  | more than 25 fold | 27 fold | 28 fold
